Laboratory results taken from paper PMC5711494, “Sterol methyltransferase a target for anti-amoeba therapy: towards transition state analog and suicide substrate drug design” (Journal of Lipid Research, 2017).
“Also recorded” adds a separate entry of the source.

Columns and labels:
[1] = target: Ac28-SMT (sterol 28-methyltransferase, SMT2) (Acanthamoeba castellanii, UniProt L8GKC5); test: Inhibition of recombinant Ac28-SMT assayed with native substrate 24(28)-methylene lophenol and [methyl-3H3]SAM; assay type: biochemical
Chain of Ac28-SMT (sterol 28-methyltransferase, SMT2) (L8GKC5 entry or part of it): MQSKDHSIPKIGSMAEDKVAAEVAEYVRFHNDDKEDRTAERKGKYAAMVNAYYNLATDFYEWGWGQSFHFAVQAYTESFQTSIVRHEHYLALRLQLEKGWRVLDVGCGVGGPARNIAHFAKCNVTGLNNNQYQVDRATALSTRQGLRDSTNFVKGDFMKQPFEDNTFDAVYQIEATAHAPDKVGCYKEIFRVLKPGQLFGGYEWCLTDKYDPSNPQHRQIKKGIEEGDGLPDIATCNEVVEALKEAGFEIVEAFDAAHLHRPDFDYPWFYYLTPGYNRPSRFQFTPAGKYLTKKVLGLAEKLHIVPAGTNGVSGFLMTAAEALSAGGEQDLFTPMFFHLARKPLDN
Method: The SMT constructs were transformed into competent BL21(DE3) cells and transformants selected against 100 µg/ml ampicillin. Expression of the SMT constructs and partial purification of the recombinant proteins followed the procedure described previously ([19]). Briefly, a single colony for 24-SMT and 28-SMT were grown overnight in an orbital shaker (250–300 rpm) at 37°C in Luria broth containing ampicillin and then reinoculated in fresh medium at 1 in 10 dilution. […] In one tube, cells were induced by addition of isopropyl thio-galactoside at a final concentration of 1 mM and in the other tube, were un-induced. Cells were harvested 2 and 4 h after induction and an equal number of cells (as calculated by OD @600 nm) from induced (+) and un-induced (−) cultures were boiled with 1X Laemmli’s buffer and analyzed by SDS-PAGE (12%). […] Total protein concentrations were determined by Bradford dye-binding procedure with bovine γ-globulin as standard. […] Incubation mixtures were saponified with methanolic potassium hydroxide and extracted with hexane (3 × 1 ml) and concentrated to dryness providing the nonsaponifiable lipid fraction; radioactivity was determined by liquid scintillation counting. […] Controls containing radioactive SAM and no sterol used to background subtract radioactivity in these treatments was less than 500 dpm. […]

[2] = system: Acanthamoeba castellanii trophozoites sterol biosynthesis; test: Sterol composition of treated Ac trophozoites (GC/MS); assay type: cell-based; conditions: 15 µM, 24 h
Method: Amoeba and HEK cells were harvested at one or more points during growth in the presence and absence of steroidal inhibitor and azole at IC50 or MACs of the inhibitor or at 40 µM for HEK cells. Cell pellets were split with an internal standard of known amounts of 5α-cholestane added to one of the cell pellets for determination of sterol amounts in cells. Cells were saponified directly in aqueous methanolic potassium hydroxide at the reflux temperature for 1 h, which yielded total sterol (free plus sterol released from ester bonds). The resulting neutral lipids obtained by dilution with water and extraction with hexane (Fisher) were analyzed by GC/MS or HPLC-equipped with a diode array detector against cholesterol as a chromatographic reference. GC and HPLC retention times of sterols were compared with those obtained from authentic standards in our steroid collection ([18]–[22]). To determine the trophozoite sterol metabolome, GC/MS analysis of cell pellet nonsaponfiables was typically carried out using control cultures incubated in 5 ml medium in 25 ml T-flasks inoculated with 1 × 10^4 trophozoites/ml and cultured for 72 h. To generate significant cell pellets for sterol analysis of treated cells, trophozoites were cultured in 10 ml medium in 25 ml T-flasks inoculated with 1 × 10^5 cells/ml and grown for 48 h.

[3] = system: Ac28-SMT; test: Substrate kinetics and product analysis with recombinant Ac28-SMT; assay type: biochemical, Acanthamoeba castellanii; conditions: incubated with SAM cosubstrate
Method: The SMT constructs were transformed into competent BL21(DE3) cells and transformants selected against 100 µg/ml ampicillin. Expression of the SMT constructs and partial purification of the recombinant proteins followed the procedure described previously ([19]). […] In one tube, cells were induced by addition of isopropyl thio-galactoside at a final concentration of 1 mM and in the other tube, were un-induced. Cells were harvested 2 and 4 h after induction and an equal number of cells (as calculated by OD @600 nm) from induced (+) and un-induced (−) cultures were boiled with 1X Laemmli’s buffer and analyzed by SDS-PAGE (12%). Gel was stained with Coomassie Brilliant Blue (0.2%) to establish the molecular weight and purity of the expressed protein. Total protein concentrations were determined by Bradford dye-binding procedure with bovine γ-globulin as standard. To determine the catalytic activity of the recombinant proteins, enzyme assays were carried out using soluble bacterial extract (100,000 g fraction) in 9 ml test tubes containing a total of 600 µl assay volume for 45 min (initial velocity conditions). The assay buffer contained 20 mM phosphate buffer in 5% (v/v) glycerol at pH 7.5, sterol acceptor emulsified in 12 µl Tween 80 (1.2 g/l), and the substrate tested over the concentration range 5 to 150 µM against 1.2 mg of total protein. The reaction was initiated by the addition of saturating levels of [methyl-^3H3]SAM, 0.9 µCi, at 150 µM. Incubation mixtures were saponified with methanolic potassium hydroxide and extracted with hexane (3 × 1 ml) and concentrated to dryness providing the nonsaponifiable lipid fraction; radioactivity was determined by liquid scintillation counting. […]

For `CC(CCC=C1CC1)C1CC[C@@]2(C)C3=C(CCC12C)C1(C)CCC(O)C(C)(C)C1CC3` (stereo partly shown) [DHL, 26,27-dehydrolanosterol], the “kinact/Ki against 28-SMT” value [1] was “effectively zero”, the Ki ([1]; read-out: Ki against 28-SMT (competitive inhibitor), assayed with natural substrate) was 54 µM and the “effect on sterol composition” value [2] was “minimal effect”. For the same compound, the “activity / methyl product formation as substrate of Ac28-SMT” value [3] was “not productively bound; also recorded: no activity was observed; also recorded: no methyl products were detected”.
